In patent publication US10414771B2, “Compounds useful for inhibiting metastasis from cancer and methods using same” (Drexel University, priority 2010, dated 2019):
Values joined by “and” are separate entries in the source; they are usually repeats but may differ in a detail not shown here. Equal entries are not always repeated. Where two headings read alike, the source gives them in different places.

How the values were obtained:
Format in all cases: cell-based
p-ERK1/2 = p-ERK1/2 inhibition by Western blot analysis
Procedure: (§1) Cell lysates were obtained and SDS-polyacrylamide gel electrophoresis and western blot analysis were performed as previously described (Shulby et al., 2004, Cancer Res. 64:4393-98), with few modifications. Membranes were probed with an antibody against CX3CR1 (0.5 μg/ml, Torrey Pines Biolabs, East Orange, N.J.) and actin (Sigma, St. Louis, Mo.) using 5% milk as a blocking reagent. Membranes were also probed with antibodies targeting phospho-p44/42 MAPK (Thr202/Tyr204, Cell Signaling) and total p44/42 MAPK (Cell Signaling). All primary antibody incubations were performed overnight at 4° C. Primary antibody binding was detected using horseradish peroxidase-conjugated anti-rabbit secondary antibody (Pierce, Rockford, Ill.). Chemiluminescent signals were obtained using SuperSignal West Femto reagents (Pierce) and detected with the Fluorochem 8900 imaging system and relative software (Alpha Innotech, San Leandro, Calif.).

CX3CR1 [1] = molecular target: T1, CX3CR1 (Homo sapiens, UniProt P49238); assay: Calcium mobilization (Ca2+) assay, agonist mode, HEK293T cells stably expressing human CX3CR1; set-up: Expression vector containing full-length human CX3CR1 cDNA; host or cells: HEK293T; conditions: for stimulation of calcium flux (agonist activity): HEK293T cells expressing human CX3CR1
T1 sequence (P49238 1-355): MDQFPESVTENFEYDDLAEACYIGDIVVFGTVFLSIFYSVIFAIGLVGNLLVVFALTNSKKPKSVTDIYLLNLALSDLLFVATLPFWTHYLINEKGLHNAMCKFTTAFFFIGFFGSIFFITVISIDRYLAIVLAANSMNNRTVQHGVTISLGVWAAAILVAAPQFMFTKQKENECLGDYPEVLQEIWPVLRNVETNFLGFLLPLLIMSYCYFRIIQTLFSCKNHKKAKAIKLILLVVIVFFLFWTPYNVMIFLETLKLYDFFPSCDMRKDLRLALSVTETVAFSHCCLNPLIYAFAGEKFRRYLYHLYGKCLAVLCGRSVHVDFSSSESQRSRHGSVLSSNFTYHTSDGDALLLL
Procedure: (§2) Cells: Mammalian HEK293T cells stably expressing human CX3CR1 (Multispan, Hayward, Calif.)—Host cell: HEK293T; Transfection: Expression vector containing full-length human CX3CR1 cDNA (GenBank Accession Number NM_001337) with FLAG tag sequence at N-terminus; Propagation Medium: DMEM, 10% FBS, 1 μg/mL puromycin.
(§3) Compounds were reconstituted in DMSO at 10 mM. Control agonist CX3CL1 was from Peprotech (Cat #300-31).
(§4) Calcium assay: Cells expressing the CX3CR1 receptor were transiently transfected with the chimeric G protein Gαqi5 and seeded in 384-well plates at appropriate densities and cultured overnight. Calcium assays were conducted according to the manufacturer's protocols. The calcium dye loading buffer was added to the cells and incubated for one hour at 37° C. Calcium flux was monitored for 90 seconds with compound injected into the wells at 20th second. In antagonist mode, carrier or compounds were preincubated with the cells for 30 minutes before calcium flux measurement with the control agonist at EC80 concentration (0.04 μM).
(§5) Data analysis: Calcium assay results were expressed as “RFU” and “% Increase in RFU” (FIG. 17). Data were represented in Mean±SEM. Dose-response curves were fitted using “Sigmoidal dose-response (variable slope)” function in Prism 4 without constraint. EC50, EC80 and IC50 values were derived from “% Increase in RFU”.

CX3CR1 [2] = molecular target: T1, CX3CR1; assay: Calcium mobilization (Ca2+) assay, antagonist mode (CX3CL1 at EC80), HEK293T cells stably expressing human CX3CR1; set-up: Expression vector containing full-length human CX3CR1 cDNA; host or cells: HEK293T; conditions: for % Increase in RFU / RFU: antagonist mode
Procedure: as §2, §3, §4, §5

CX3CR1 [3] = molecular target: T1, CX3CR1; assay: Inhibition of FKN-induced ERK phosphorylation in MDA-436 breast cancer cells over-expressing CX3CR1 (Western blot); set-up: expressed in transfected cells; host or cells: MDA-MB-436 human breast cancer cells; conditions: for inhibition of ERK phosphorylation induced by FKN: compound at 10 μM, incubated 30 minutes, MDA-436 cells over-expressing CX3CR1, 50 nM FKN for 5 minutes
Procedure: Cells were serum starved for 4 hours and then exposed to 50 nM recombinant human FKN (R&D systems, Minneapolis, Minn.) for indicated time points.
as §1
Compound 1 was then evaluated for its ability to inhibit the activation of downstream intracellular pathways by CX3CR1 upon stimulation with soluble FKN. In these experiments, MDA-MB 436 human breast cancer cells, engineered to over-express CX3CR1, were treated with 50 nM FKN for 5 minutes after being incubated with compound 1 for 30 minutes.

[4] = agonist mode, Log [Compounds] M −4.5, listed as JMS-16
[5] = agonist mode, Log [Compounds] M −4.8, listed as JMS-16
[6] = agonist mode, Log [Compounds] M −5.1, listed as JMS-16
[7] = agonist mode, Log [Compounds] M −5.4, listed as JMS-16
[8] = agonist mode, Log [Compounds] M −5.7, listed as JMS-16
[9] = agonist mode, Log [Compounds] M −6.0, listed as JMS-16
[10] = agonist mode, Log [Compounds] M −6.3, listed as JMS-16
[11] = agonist mode, Log [Compounds] M −6.6, listed as JMS-16
[12] = CX3CL1 at EC80 (0.04 μM), Log [Compounds] M −4.5, listed as JMS-16
[13] = CX3CL1 at EC80 (0.04 μM), Log [Compounds] M −4.8, listed as JMS-16
[14] = CX3CL1 at EC80 (0.04 μM), Log [Compounds] M −5.1, listed as JMS-16
[15] = CX3CL1 at EC80 (0.04 μM), Log [Compounds] M −5.4, listed as JMS-16
[16] = CX3CL1 at EC80 (0.04 μM), Log [Compounds] M −5.7, listed as JMS-16
[17] = CX3CL1 at EC80 (0.04 μM), Log [Compounds] M −6.0, listed as JMS-16
[18] = CX3CL1 at EC80 (0.04 μM), Log [Compounds] M −6.3, listed as JMS-16
[19] = CX3CL1 at EC80 (0.04 μM), Log [Compounds] M −6.6, listed as JMS-16
[20] = control agonist, Log [CX3CL1] M −6.7
[21] = control agonist, Log [CX3CL1] M −7.2
[22] = control agonist, Log [CX3CL1] M −7.7
[23] = control agonist, Log [CX3CL1] M −8.1
[24] = control agonist, Log [CX3CL1] M −8.6
[25] = control agonist, Log [CX3CL1] M −9.1
[26] = control agonist, Log [CX3CL1] M −9.6
[27] = control agonist, Log [CX3CL1] M −10.0
[28] = EC80 CX3CL1 (0.04 μM) alone, no test compound

O=c1c2cccn2c2ccccc2n1CCCN1CCC(O)(c2ccc(Cl)cc2)CC1 [Compound 3, 5-(3-(4-(4-chlorophenyl)-4-hydroxypiperidin-1-yl)propyl)pyrrolo[1,2-a]quinoxalin-4(5H)-one]
EC50 (p-ERK1/2): ~0.01 µM
stimulation of calcium flux (agonist activity) (CX3CR1 [1]): agonist activity at the two highest concentrations
% Increase in RFU (CX3CR1 [1]; [4]): 127.9% and 118.0% and 112.4%
RFU (CX3CR1 [1]; [4]): 31.7 RFU and 30.7 RFU and 29.0 RFU
% Increase in RFU (CX3CR1 [1]; [5]): 80.2% and 85.0% and 84.7%
RFU (CX3CR1 [1]; [5]): 22.1 RFU and 22.5 RFU and 23.3 RFU
% Increase in RFU (CX3CR1 [1]; [6]): 60.1% and 70.3% and 64.9%
RFU (CX3CR1 [1]; [6]): 16.5 RFU and 20.3 RFU and 18.8 RFU
% Increase in RFU (CX3CR1 [1]; [7]): 61.1% and 62.3% and 60.5%
RFU (CX3CR1 [1]; [7]): 15.5 RFU and 16.9 RFU and 17.1 RFU
% Increase in RFU (CX3CR1 [1]; [8]): 57.2% and 61.7% and 60.7%
RFU (CX3CR1 [1]; [8]): 15.2 RFU and 17.8 RFU and 17.1 RFU
% Increase in RFU (CX3CR1 [1]; [9]): 58.3% and 63.2% and 63.0%
RFU (CX3CR1 [1]; [9]): 15.6 RFU and 18.7 RFU and 18.6 RFU
% Increase in RFU (CX3CR1 [1]; [10]): 59.0% and 66.2% and 61.9%
RFU (CX3CR1 [1]; [10]): 16.0 RFU and 18.2 RFU and 19.5 RFU
% Increase in RFU (CX3CR1 [1]; [11]): 61.6% and 62.1% and 60.1%
RFU (CX3CR1 [1]; [11]): 15.5 RFU and 18.6 RFU and 17.8 RFU
IC50 (CX3CR1 [2]; 30 min preincubation, CX3CL1 at EC80 (0.04 μM), read-out: IC50, inhibition of CX3CL1-evoked calcium flux): 21 µM
% Increase in RFU (CX3CR1 [2]; [12]): 4.4% and 3.5% and 2.2%
RFU (CX3CR1 [2]; [12]): 1.2 RFU and 0.9 RFU and 0.6 RFU
% Increase in RFU (CX3CR1 [2]; [13]): 27.9% and 23.6% and 26.7%
RFU (CX3CR1 [2]; [13]): 9.5 RFU and 7.6 RFU and 8.5 RFU
% Increase in RFU (CX3CR1 [2]; [14]): 45.0% and 38.6% and 38.7%
RFU (CX3CR1 [2]; [14]): 15.0 RFU and 13.0 RFU and 12.3 RFU
% Increase in RFU (CX3CR1 [2]; [15]): 52.1% and 45.7% and 41.1%
RFU (CX3CR1 [2]; [15]): 15.5 RFU and 14.4 RFU and 13.5 RFU
% Increase in RFU (CX3CR1 [2]; [16]): 48.9% and 53.1% and 47.0%
RFU (CX3CR1 [2]; [16]): 15.6 RFU and 17.9 RFU and 14.4 RFU
% Increase in RFU (CX3CR1 [2]; [17]): 58.1% and 54.8% and 53.3%
RFU (CX3CR1 [2]; [17]): 18.4 RFU and 18.6 RFU and 18.2 RFU
% Increase in RFU (CX3CR1 [2]; [18]): 46.4% and 46.2% and 42.0%
RFU (CX3CR1 [2]; [18]): 15.7 RFU and 14.6 RFU and 14.5 RFU
% Increase in RFU (CX3CR1 [2]; [19]): 45.9% and 41.3% and 44.0%
RFU (CX3CR1 [2]; [19]): 13.6 RFU and 14.0 RFU and 14.4 RFU

N#CC(CCCN1CCC(O)(c2ccc(Cl)cc2)CC1)(c1ccccc1)c1ccccc1 [Compound 1, 5-(4-(4-chlorophenyl)-4-hydroxypiperidin-1-yl)-2,2-diphenylpentanenitrile]
CX3CR1 antagonism (in words) (CX3CR1 [3]): weakly potent
inhibition of ERK phosphorylation induced by FKN (CX3CR1 [3]): inhibits ERK phosphorylation
inhibition of ERK phosphorylation induced by FKN (CX3CR1 [3]; listed as compound 1): able to inhibit the activation of the MAPK pathway
CX3CR1 antagonism (in words) (CX3CR1 [3]; listed as compound 1): weak CX3CR1 antagonism

B1: CX3CL1: Control agonist CX3CL1 from Peprotech; chemokine ligand of CX3CR1, also called fractalkine or FKN (protein, listed as Homo sapiens)
chain: MAPISLSWLLRLATFCHLTVLLAGQHHGVTKCNITCSKMTSKIPVALLIHYQQNQASCGKRAIILETRQHRLFCADPKEQWVKDAMQHLDRQAAALTRNGGTFEKQIGEVKPRTTPAAGGMDESVVLEPEATGESSSLEPTPSSQEAQRALGTSPELPTGVTGSSGTRLPPTPKAQDGGPVGTELFRVPPVSTAATWQSSAPHQPGPSLWAEAKTSEAPSTQDPSTQASTASSPAPEENAPSEGQRVWGQGQSPRPENSLEREEMGPVPAHTDAFQDWGPGSMAHVSVVPVSSEGTPSREPVASGSWTPKAEEPIHATMDPQRLGVLITPVPDAQAATRRQAVGLLAFLGLLFCLGVAMFTYQSLQGCPRKMAGEMAEGLRYIPRSCGSNSYVLVPV
stimulation of calcium flux (agonist activity) (CX3CR1 [1]): dose-dependent stimulation of calcium flux
% Increase in RFU (CX3CR1 [1]; [20]): 59.0% and 61.1%
RFU (CX3CR1 [1]; [20]): 22.2 RFU and 22.7 RFU
% Increase in RFU (CX3CR1 [1]; [21]): 59.9% and 52.7%
RFU (CX3CR1 [1]; [21]): 21.4 RFU and 20.1 RFU
% Increase in RFU (CX3CR1 [1]; [22]): 42.3% and 35.6%
RFU (CX3CR1 [1]; [22]): 15.5 RFU and 12.4 RFU
% Increase in RFU (CX3CR1 [1]; [23]): 25.3% and 14.3%
RFU (CX3CR1 [1]; [23]): 9.3 RFU and 4.8 RFU
% Increase in RFU (CX3CR1 [1]; [24]): 9.6% and 11.8%
RFU (CX3CR1 [1]; [24]): 3.3 RFU and 4.0 RFU
% Increase in RFU (CX3CR1 [1]; [25]): 12.2% and 11.0%
RFU (CX3CR1 [1]; [25]): 4.4 RFU and 4.1 RFU
% Increase in RFU (CX3CR1 [1]; [26]): 8.3% and 5.1%
RFU (CX3CR1 [1]; [26]): 2.9 RFU and 1.9 RFU
% Increase in RFU (CX3CR1 [1]; [27]): 7.6% and 4.7%
RFU (CX3CR1 [1]; [27]): 2.6 RFU and 1.6 RFU
% Increase in RFU (CX3CR1 [2]; [28]): 45.9% and 37.2% and 45.8%
RFU (CX3CR1 [2]; [28]): 16.0 RFU and 10.9 RFU and 15.8 RFU
